Data as given in patent US20250002471A1 (Gilead Sciences, Inc., priority 2020, published 2025).

Assays:
TLR7 = biological target: T1, TLR7 (Homo sapiens, UniProt Q9NYK1); test: Human PBMC cell-based assay, TLR7 agonist GS-986 stimulation, cytokine (IL-6 and IFNα) readout; conditions: human PBMCs, GS-986 400 nM, 6 hours; Table 26; read-out: TLR-7 EC50
T1 construct: lymphocytes, monocytes and dendritic cells that express TLR7, TLR8 and TLR9; endogenous in cells; host or cells: human PBMCs from healthy donors
T1 sequence (Q9NYK1 27-1049): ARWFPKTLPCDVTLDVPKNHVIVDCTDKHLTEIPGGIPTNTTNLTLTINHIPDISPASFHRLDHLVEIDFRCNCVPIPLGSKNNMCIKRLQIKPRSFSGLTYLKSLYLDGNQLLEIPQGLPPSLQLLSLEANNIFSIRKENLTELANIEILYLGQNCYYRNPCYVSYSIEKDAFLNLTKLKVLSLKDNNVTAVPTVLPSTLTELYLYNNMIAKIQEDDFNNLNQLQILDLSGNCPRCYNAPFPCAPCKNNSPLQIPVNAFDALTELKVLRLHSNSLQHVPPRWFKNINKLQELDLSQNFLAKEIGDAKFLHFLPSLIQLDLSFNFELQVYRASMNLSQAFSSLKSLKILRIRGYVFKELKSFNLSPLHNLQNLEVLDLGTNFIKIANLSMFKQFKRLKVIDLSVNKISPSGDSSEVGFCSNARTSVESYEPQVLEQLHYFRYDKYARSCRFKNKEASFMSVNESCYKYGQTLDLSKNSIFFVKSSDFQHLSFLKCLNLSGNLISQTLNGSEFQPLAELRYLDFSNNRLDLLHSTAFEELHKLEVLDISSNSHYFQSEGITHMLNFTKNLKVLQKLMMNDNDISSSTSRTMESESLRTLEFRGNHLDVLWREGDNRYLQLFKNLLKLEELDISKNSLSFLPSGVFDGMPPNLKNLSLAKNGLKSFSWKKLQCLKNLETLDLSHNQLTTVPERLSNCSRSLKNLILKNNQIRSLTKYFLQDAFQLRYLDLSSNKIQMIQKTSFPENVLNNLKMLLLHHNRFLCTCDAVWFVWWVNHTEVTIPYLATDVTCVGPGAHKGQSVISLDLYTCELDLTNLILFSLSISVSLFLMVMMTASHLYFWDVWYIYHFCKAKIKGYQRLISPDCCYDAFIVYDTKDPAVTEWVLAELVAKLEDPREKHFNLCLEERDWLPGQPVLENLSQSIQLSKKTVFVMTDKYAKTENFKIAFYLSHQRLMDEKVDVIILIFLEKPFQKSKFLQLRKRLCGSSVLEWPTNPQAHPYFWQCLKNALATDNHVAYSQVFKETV
Summary of the method: (§1)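 Cryopreserved healthy-donor PBMCs (100,000 cells/well, RPMI-1640 + 10% FBS) preincubated 1 h at 37 °C with antagonist (10-point dose response), then stimulated 6 h with GS-986 (400 nM final, TLR7) or ODN-2216 (3 μM final, TLR9). Supernatant IL-6 and IFNα measured by electrochemiluminescence immunoassay; EC50 from sigmoidal fit.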

TLR8 = biological target: T2, TLR8 (Homo sapiens, UniProt Q9NR97); test: TLR8 human PBMC cell-based assay, TLR8 agonist Compound A stimulation, cytokine (TNFa and IL12p40) readout; conditions: human PBMCs, Compound A 800 nM, 6 hours; Table 26; read-out: TLR-8 EC50
T2 construct: lymphocytes, monocytes and dendritic cells that express TLR7, TLR8 and TLR9; endogenous in cells; host or cells: human PBMCs from healthy donors
T2 sequence (Q9NR97 27-1041): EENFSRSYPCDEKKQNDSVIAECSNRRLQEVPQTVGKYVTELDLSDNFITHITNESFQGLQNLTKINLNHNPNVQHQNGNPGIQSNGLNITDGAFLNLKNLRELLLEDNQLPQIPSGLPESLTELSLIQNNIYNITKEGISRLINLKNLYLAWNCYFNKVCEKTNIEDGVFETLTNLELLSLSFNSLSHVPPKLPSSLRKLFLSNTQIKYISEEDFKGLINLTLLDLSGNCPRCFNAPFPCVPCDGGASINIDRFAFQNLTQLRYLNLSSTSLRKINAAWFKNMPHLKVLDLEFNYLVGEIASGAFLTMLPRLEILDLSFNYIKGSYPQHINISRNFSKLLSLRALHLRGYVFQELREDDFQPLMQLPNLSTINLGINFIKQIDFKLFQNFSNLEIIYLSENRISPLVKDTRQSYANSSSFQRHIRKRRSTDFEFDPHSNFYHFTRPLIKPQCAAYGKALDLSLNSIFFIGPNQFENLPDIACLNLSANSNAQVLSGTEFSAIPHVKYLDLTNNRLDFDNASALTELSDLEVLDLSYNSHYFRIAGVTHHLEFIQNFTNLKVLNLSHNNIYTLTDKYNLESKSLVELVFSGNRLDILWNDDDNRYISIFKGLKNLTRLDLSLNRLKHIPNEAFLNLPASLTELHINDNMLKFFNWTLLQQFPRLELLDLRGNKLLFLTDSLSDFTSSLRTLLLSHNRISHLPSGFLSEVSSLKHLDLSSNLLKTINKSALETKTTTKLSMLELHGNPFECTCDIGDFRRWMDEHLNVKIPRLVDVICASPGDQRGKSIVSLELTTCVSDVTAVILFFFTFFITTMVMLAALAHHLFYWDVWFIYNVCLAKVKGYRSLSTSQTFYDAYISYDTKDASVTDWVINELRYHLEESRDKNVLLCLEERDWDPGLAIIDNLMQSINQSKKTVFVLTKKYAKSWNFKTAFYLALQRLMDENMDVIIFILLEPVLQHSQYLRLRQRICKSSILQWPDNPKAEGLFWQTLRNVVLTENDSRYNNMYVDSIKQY
Experimental: Cryopreserved human PBMCs from healthy donors were thawed and resuspended in RPMI-1640 media with L-glutamine (Corning) supplemented with 10% Fetal Bovine Serum (Hyclone) and 1X Penicillin-Streptomycin (Corning). After counting, the cell density was adjusted to 2 million cells/ml and incubated for 1 hour at 37° C., 5% CO2 for recovery. Following the recovery, the cells were plated by adding 50p per well (100,000 cells) to 384-well cell culture plates (Greiner) containing 250nl of test antagonists in 100% DMSO per well, in a 10 points dose response in quadruplicates. PBMCs were incubated in the presence of antagonists for one hour at 37° C., 5% CO2 before being stimulated with TLR8 agonist. Compound A (Gilead Sciences, U.S. Pat. No. 10,285,990) was used as the TLR8 agonist at a final concentration of 800 nM. PBMCs were incubated in the presence of antagonist and the TLR8 agonist for an additional 6 hours at 37° C., […]. At the end of the incubation, the cell culture plates were centrifuged at 500 g for 5 min, and the cell culture supernatant was collected. The level of cytokines (TNFa and IL12p40) in the supernatant was measured by electrochemiluminescence immunoassays (Mesoscale Discovery) following manufacturer's recommended protocols. The level of cytokine measured was plotted against the antagonist concentration and fitted to a sigmoidal function to determine the EC50, which are shown below in Table 11.

TLR9 = biological target: T3, TLR9 (Homo sapiens, UniProt Q9NR96); test: Human PBMC cell-based assay, TLR9 agonist ODN-2216 stimulation, cytokine (IL-6 and IFNα) readout; conditions: human PBMCs, ODN-2216 3 μM, 6 hours; Table 26; read-out: TLR-9 EC50
T3 construct: lymphocytes, monocytes and dendritic cells that express TLR7, TLR8 and TLR9; endogenous in cells; host or cells: human PBMCs from healthy donors
T3 sequence (Q9NR96 26-1032): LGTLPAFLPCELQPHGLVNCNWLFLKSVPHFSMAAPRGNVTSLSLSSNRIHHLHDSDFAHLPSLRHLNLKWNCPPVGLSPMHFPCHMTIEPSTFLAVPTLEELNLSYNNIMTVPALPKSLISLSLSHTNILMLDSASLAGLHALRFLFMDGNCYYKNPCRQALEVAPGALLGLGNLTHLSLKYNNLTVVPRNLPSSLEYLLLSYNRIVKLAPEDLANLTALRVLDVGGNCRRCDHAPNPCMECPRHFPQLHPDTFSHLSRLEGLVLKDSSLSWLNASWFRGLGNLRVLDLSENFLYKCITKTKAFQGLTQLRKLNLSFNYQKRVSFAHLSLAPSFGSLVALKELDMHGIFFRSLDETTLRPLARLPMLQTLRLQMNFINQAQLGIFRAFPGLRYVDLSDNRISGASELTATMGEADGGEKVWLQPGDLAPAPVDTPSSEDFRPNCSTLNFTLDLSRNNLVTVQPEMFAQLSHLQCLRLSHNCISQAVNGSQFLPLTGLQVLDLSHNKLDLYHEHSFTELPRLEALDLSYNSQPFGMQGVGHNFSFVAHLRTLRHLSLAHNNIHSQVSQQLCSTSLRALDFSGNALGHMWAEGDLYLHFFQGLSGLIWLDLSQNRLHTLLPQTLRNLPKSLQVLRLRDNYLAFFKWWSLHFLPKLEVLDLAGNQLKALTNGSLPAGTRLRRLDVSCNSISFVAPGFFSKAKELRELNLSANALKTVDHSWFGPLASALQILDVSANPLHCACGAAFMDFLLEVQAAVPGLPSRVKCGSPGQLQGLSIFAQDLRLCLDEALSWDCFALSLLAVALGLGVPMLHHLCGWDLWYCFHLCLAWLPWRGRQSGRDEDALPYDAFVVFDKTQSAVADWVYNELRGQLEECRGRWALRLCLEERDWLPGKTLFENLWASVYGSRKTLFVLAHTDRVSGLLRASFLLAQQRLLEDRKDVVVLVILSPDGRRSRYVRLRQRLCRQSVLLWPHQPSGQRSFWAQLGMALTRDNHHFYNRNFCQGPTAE
Summary of the method: as §1

Structure (SMILES) | EC50 (TLR7) | EC50 (TLR8) | EC50 (TLR9)
Cc1c(-c2cc(C)c3ncnn3c2)[nH]c2cc(-c3nnc(C4CCNCC4)o3)ccc12 [Example 191] | 49.1 nM | 269 nM | 
Cc1cc(-c2[nH]c3cc(-c4ccc(N5CCN(C(=O)[C@H]6CCCN6)CC5)nc4)ccc3c2C)cc(C)n1 [Example 134, (R)-2-(2,6-dimethylpyridin-4-yl)-3-methyl-6-(6-(4-prolylpiperazin-1-yl)pyridin-3-yl)-1H-indole] | 41.9 nM |  | 58.9 nM
Cc1cc(-c2[nH]c3cc(-c4ccc(N5CCNCC5)nc4)ccc3c2C)cc(C#N)n1 [Example 77] | 10.5 nM |  | 768 nM
Cc1c(-c2cc(C#N)c(=O)n(C)c2)[nH]c2cc(-c3ccc(N4CCNCC4)nc3)ccc12 [Example 93] | 205 nM |  | 909 nM
Cc1cc(-c2[nH]c3cc(-c4cnc(N5CCNCC5)c(C)c4)ccc3c2C)cc(C)n1 [Example 3] | 22.8 nM |  | 56.3 nM
CCc1c(-c2cc(C)nc(C)c2)[nH]c2cc(-c3ccc(N4CCNCC4)nc3)ccc12 [Example 70, 2-(2,6-dimethylpyridin-4-yl)-3-ethyl-6-(6-(piperazin-1-yl)pyridin-3-yl)-1H-indole] | 6.7 nM |  | 187 nM
Cc1cc(-c2[nH]c3cc(-c4ccc(N5CCN(C(=O)[C@H]6COCCN6)CC5)nc4)ccc3c2C)cc(C)n1 [Example 111] | 56.8 nM |  | 59.2 nM
Cc1cc(-c2[nH]c3cc(-c4ccc5cccnc5c4)ccc3c2C)cc(C)n1 [Example 47] | 652 nM |  | 400 nM
Cc1cc(-c2[nH]c3cc(-c4cccc(C(=O)N5CC[C@@H](N)C5)c4)ccc3c2C)cc(C)n1 [Example 121] | 134 nM |  | 112 nM

Continued, values first:

EC50 (TLR7) | EC50 (TLR8) | EC50 (TLR9) | Structure (SMILES)
0.15 nM | 8.15 nM |  | Cc1cc(-c2[nH]c3cc(-c4ccc(N5CCNCC5)nc4)ccc3c2C2CC2)cn2ncnc12 [Example 175]
0.11 nM | 5.16 nM |  | CCc1c(-c2cc(C)c3ncnn3c2)[nH]c2cc(-c3ccc(N4CCN(CCO)CC4)nc3)ccc12 [Example 173]
65.6 nM | 403 nM |  | Cc1c(-c2cc(C)c3ncnn3c2)[nH]c2cc(-c3nnc(N4CCNCC4)o3)ccc12 [Example 192]
63 nM |  | 421 nM | Cc1cc(-c2[nH]c3cc(-c4ccc(N5CCNCC5)nc4)ccc3c2C)cnn1 [Example 76]
0.12 nM | 3.33 nM |  | CCc1c(-c2cc(OC)c3ncnn3c2)[nH]c2cc(-c3ccc(N4CCN(C(=O)C56CC(CN5)C6)CC4)nc3)ccc12 [Example 174]
324 nM |  | 93.2 nM | Cc1cc(-c2[nH]c3cc(-c4ccc(S(=O)(=O)N5CCNCC5)cc4)ccc3c2C)cc(C)n1 [Example 68]
73.9 nM |  | 41.3 nM | Cc1cc(-c2[nH]c3cc(-c4ccc(N5CCN(C(=O)[C@@H]6CCCN6)CC5)nc4)ccc3c2C)cc(C)n1 [Example 135]
83.2 nM |  | 51.2 nM | Cc1cc(-c2[nH]c3cc(-c4ccc(N5CCNCC5)cc4)ccc3c2C)cc(C)n1 [Example 66]
171 nM |  | 469 nM | Cc1cc(-c2[nH]c3cc(-c4ccc5c(c4)[nH]c(=O)n5C4CCNCC4)ccc3c2C)cc(C)n1 [Example 187, 6-[2-(2,6-dimethyl-4-pyridyl)-3-methyl-1H-indol-6-yl]-3-(4-piperidyl)-1H-benzimidazol-2-one]
8.3 nM |  | 89.6 nM | Cc1cc(-c2[nH]c3cc(-c4ccc(NC5CCNCC5)nc4)ccc3c2C)cc(C)n1 [Example 24]
226 nM |  | 87.2 nM | Cc1cc(-c2[nH]c3cc(-c4cccc(C(=O)N5CCC(N)CC5)c4)ccc3c2C)cc(C)n1 [Example 122]
